Assay results reported in patent publication US20240246950A1, “Anilino-Pyrazole Derivatives, Compositions and Methods Thereof” (Ensem Therapeutics, priority 2022, published 2024).
pIC50: −log10 of the molar value.

Assays:
[1] = target: CDK1/cyclinB (Homo sapiens, UniProt P06493); experiment: In vitro kinase TR-FRET assay CDK1/cyclinB; assay type: biochemical; details: enzyme 0.3 nM, ATP 56 μM
Method in brief: (§1)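 Enzymes at 3 nM (CDK2/CycA2), 0.6 nM (CDK2/CycE1), 0.3 nM (CDK1/cyclinB), 0.6 nM (GSK3β) with ATP at 27, 82, 56, 7.6 μM respectively, 50 nM ULight-4E-BP1 peptide, HEPES pH7.5; 10-point 3-fold dilutions. 1 h reaction at room temperature; Eu-anti-phospho-4E-BP1 TR-FRET (665/615 nm) read; IC50 from dose-response curves.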

[2] = target: CDK2/CycA2 (Homo sapiens, UniProt P24941); experiment: In vitro kinase TR-FRET assay CDK2/CycA2; assay type: biochemical; details: enzyme 3 nM, ATP 27 μM, read-out: CDK2 cyclinA2 activity assay: IC50
Method in brief: as §1

[3] = target: CDK2/CycE1 (Homo sapiens, UniProt P24941); experiment: In vitro kinase TR-FRET assay CDK2/CycE1; assay type: biochemical; details: enzyme 0.6 nM, ATP 82 μM, read-out: CDK2 cyclinE1 activity assay: IC50
Method in brief: as §1

[4] = target: GSK3β (Homo sapiens, UniProt P49841); experiment: In vitro kinase TR-FRET assay GSK3β; assay type: biochemical; details: enzyme 0.6 nM, ATP 7.6 μM
GSK3β, sequence (P49841 whole entry, species assumed): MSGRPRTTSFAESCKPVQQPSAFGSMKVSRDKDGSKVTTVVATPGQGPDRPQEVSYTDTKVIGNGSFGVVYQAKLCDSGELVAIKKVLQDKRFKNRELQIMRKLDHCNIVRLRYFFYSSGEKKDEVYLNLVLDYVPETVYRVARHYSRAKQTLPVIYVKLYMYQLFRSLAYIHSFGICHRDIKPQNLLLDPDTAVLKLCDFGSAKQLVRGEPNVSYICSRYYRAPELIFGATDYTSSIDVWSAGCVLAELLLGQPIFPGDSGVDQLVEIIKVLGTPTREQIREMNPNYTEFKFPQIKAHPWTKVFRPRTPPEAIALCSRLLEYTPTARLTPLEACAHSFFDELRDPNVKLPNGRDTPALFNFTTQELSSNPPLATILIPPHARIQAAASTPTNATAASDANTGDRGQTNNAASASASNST
Method in brief: as §1

[5] = system: OVCAR3; experiment: Cell proliferation (CyQUANT) OVCAR3; assay type: cell-based; details: Homo sapiens, OVCAR-3, 168 h, OVCAR3, 7 days, read-out: Anti-proliferation assay: IC50 (nM) [Cell Line: OVCAR3]
Method in brief: (§2)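 Cells were seeded at 2500, 1000 or 3000 cells/well, cultured overnight, then exposed to 3-fold compound dilutions for 7 days (final DMSO at most 0.01%). CyQUANT fluorescence was read at Ex/Em 480/520 nm; % inhibition computed relative to same-plate DMSO wells.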

[6] = system: TOV21G; experiment: Cell proliferation (CyQUANT) TOV21G; assay type: cell-based; details: Homo sapiens, 168 h, 7 days, read-out: Anti-proliferation assay: IC50 (nM) [Cell Line: TOV21G]
Method in brief: as §2

CDK1/cyclinB, sequence (P06493 whole entry): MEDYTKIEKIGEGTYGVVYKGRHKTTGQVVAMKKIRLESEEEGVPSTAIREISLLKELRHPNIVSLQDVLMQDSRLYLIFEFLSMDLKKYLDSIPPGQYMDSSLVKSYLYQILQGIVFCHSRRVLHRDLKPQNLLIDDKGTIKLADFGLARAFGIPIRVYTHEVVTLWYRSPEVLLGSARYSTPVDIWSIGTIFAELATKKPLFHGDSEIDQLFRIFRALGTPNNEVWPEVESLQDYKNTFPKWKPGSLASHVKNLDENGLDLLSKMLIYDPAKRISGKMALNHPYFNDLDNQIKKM
CDK1/cyclinB, sequence (P14635 whole entry partner): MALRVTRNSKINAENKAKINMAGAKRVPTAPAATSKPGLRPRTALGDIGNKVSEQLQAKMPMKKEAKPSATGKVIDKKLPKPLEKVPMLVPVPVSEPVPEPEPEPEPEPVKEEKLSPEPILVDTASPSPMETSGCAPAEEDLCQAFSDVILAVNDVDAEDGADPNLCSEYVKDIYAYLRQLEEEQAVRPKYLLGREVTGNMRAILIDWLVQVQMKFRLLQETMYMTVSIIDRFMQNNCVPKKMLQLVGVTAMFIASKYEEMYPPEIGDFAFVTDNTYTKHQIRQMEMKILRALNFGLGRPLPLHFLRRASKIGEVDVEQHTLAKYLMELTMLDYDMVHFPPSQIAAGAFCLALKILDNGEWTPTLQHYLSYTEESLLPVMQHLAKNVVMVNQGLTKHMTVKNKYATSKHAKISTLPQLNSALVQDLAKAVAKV

SMILES | pIC50 [1] | pIC50 [2] | pIC50 [3] | pIC50 [4] | IC50 [5] | IC50 [6]
CC(C)NC(=O)O[C@@H]1CC[C@H](c2cc(Nc3cccc4c3CCCS4(=O)=O)n[nH]2)C1 [Example 59, (1R,3S)-3-(3-((1,1-dioxidothiochroman-5-yl)amino)-1H-pyrazol-5-yl)cyclopentyl isopropylcarbamate] | 6.30 to 7.30 | > 7.30 | > 7.30 | 6.00 to 6.30 | ≤ 500 nM | 500 to 1000 nM
CC(C)NC(=O)O[C@@H]1CC[C@H](c2cc(Nc3ccc4c(c3F)CCS4(=O)=O)n[nH]2)C1 [Example 60, (1R,3S)-3-(3-((4-fluoro-1,1-dioxido-2,3-dihydrobenzo[b]thiophen-5-yl)amino)-1H-pyrazol-5-yl)cyclopentyl isopropylcarbamate] | 6.30 to 7.30 | > 7.30 | > 7.30 | < 6.00 | ≤ 500 nM | ≥ 1000 nM
CC(C)NC(=O)O[C@@H]1CC[C@H](c2cc(Nc3cccc4c3CS(=O)(=O)CC4O)[nH]n2)C1 (stereo partly drawn) [Example 62, (1R,3S)-3-(5-((4-hydroxy-2,2-dioxidoisothiochroman-8-yl)amino)-1H-pyrazol-3-yl)cyclopentyl isopropylcarbamate] | 6.30 to 7.30 | > 7.30 | > 7.30 | < 6.00 | ≤ 500 nM | ≥ 1000 nM
CC(C)NC(=O)O[C@@H]1CC[C@H](c2cc(Nc3cccc4c3CS(=O)(=O)CC4)n[nH]2)C1 [Example 63, (1R,3S)-3-(3-((2,2-dioxidoisothiochroman-8-yl)amino)-1H-pyrazol-5-yl)cyclopentyl isopropylcarbamate] | 6.30 to 7.30 | > 7.30 | > 7.30 | < 6.00 | ≤ 500 nM | ≥ 1000 nM

Second part, led by results:

pIC50 [1] | pIC50 [2] | pIC50 [3] | pIC50 [4] | IC50 [5] | SMILES | IC50 [6]
6.30 to 7.30 | > 7.30 | > 7.30 | 6.30 to 7.30 | ≤ 500 nM | CC(C)NC(=O)O[C@@H]1CC[C@H](c2cc(Nc3ccc4c(n3)CCS4(=O)=O)n[nH]2)C1 [Example 55, (1R,3S)-3-(3-((1,1-dioxido-2,3-dihydrothieno[3,2-b]pyridin-5-yl)amino)-1H-pyrazol-5-yl)cyclopentyl isopropylcarbamate] | ≥ 1000 nM
6.30 to 7.30 | > 7.30 | > 7.30 | 6.30 to 7.30 | ≤ 500 nM | CC(C)NC(=O)O[C@@H]1CC[C@H](c2cc(Nc3cccc4c3CCN(C)S4(=O)=O)[nH]n2)C1 [Example 56, (1R,3S)-3-{5-[(2-methyl-1,1-dioxo-3,4-dihydro-2H-1λ6-benzo[2,1-e][1,2]thiazin-5-yl)amino]-1H-pyrazol-3-yl}cyclopentyl (prop-2-ylamino)methanoate] | ≥ 1000 nM
6.30 to 7.30 | > 7.30 | > 7.30 | 6.30 to 7.30 | ≤ 500 nM | CC(C)NC(=O)O[C@@H]1CC[C@H](c2cc(Nc3nccc4c3CCS4(=O)=O)n[nH]2)C1 [Example 57, (1R,3S)-3-{5-[(1,1-dioxo-2,3-dihydro-1λ^6-thieno[3,2-c]pyridin-4-yl)amino]-2H-pyrazol-3-yl}cyclopentyl (prop-2-ylamino)methanoate] | 500 to 1000 nM
6.30 to 7.30 | > 7.30 | > 7.30 | 6.00 to 6.30 | ≤ 500 nM | CC(C)NC(=O)O[C@@H]1CC[C@H](c2cc(Nc3ccc(Cl)c4c3CCCS4(=O)=O)n[nH]2)C1 [Example 58, (1R,3S)-3-(3-((8-chloro-1,1-dioxidothiochroman-5-yl)amino)-1H-pyrazol-5-yl)cyclopentyl isopropylcarbamate] | ≥ 1000 nM
> 7.30 | > 7.30 | > 7.30 | 6.00 to 6.30 | ≤ 500 nM | CC(C)NC(=O)O[C@@H]1CC[C@H](c2cc(Nc3cccc4c3CCNS4(=O)=O)n[nH]2)C1 [Example 61, (1R,3S)-3-(3-((1,1-dioxido-3,4-dihydro-2H-benzo[e][1,2]thiazin-5-yl)amino)-1H-pyrazol-5-yl)cyclopentyl isopropylcarbamate] | ≤ 500 nM
